{
  "source": "a compilation of properties of binary mixtures (doi:10.1021/acs.jced.9b00648)",
  "assay": "xn = mol fraction of the nth substance listed",
  "settings": "100 kPa",
  "data": [
    {"smiles": "C=C[n+]1ccn(CC(N)=O)c1.O=S(=O)([N-]S(=O)(=O)C(F)(F)F)C(F)(F)F", "note": "+ CC#N", "values": [
      {"measurement": "electrical conductivity", "setting": "298.15 K, x1 = 0.02", "result": 2.52, "unit": "S/m"},
      {"measurement": "electrical conductivity", "setting": "298.15 K, x1 = 0.047", "result": 3.16, "unit": "S/m"},
      {"measurement": "viscosity", "setting": "298.15 K, x1 = 0.05", "result": 2.88, "unit": "mPa·s"},
      {"measurement": "electrical conductivity", "setting": "298.15 K, x1 = 0.07", "result": 3.32, "unit": "S/m"},
      {"measurement": "electrical conductivity", "setting": "298.15 K, x1 = 0.08", "result": 3.26, "unit": "S/m"},
      {"measurement": "electrical conductivity", "setting": "298.15 K, x1 = 0.1", "result": 3.06, "unit": "S/m"},
      {"measurement": "viscosity", "setting": "298.15 K, x1 = 0.1", "result": 10.3, "unit": "mPa·s"},
      {"measurement": "electrical conductivity", "setting": "298.15 K, x1 = 0.2", "result": 1.6, "unit": "S/m"},
      {"measurement": "viscosity", "setting": "298.15 K, x1 = 0.201", "result": 75, "unit": "mPa·s"},
      {"measurement": "viscosity", "setting": "298.15 K, x1 = 0.3026", "result": 276, "unit": "mPa·s"},
      {"measurement": "electrical conductivity", "setting": "298.15 K, x1 = 0.393", "result": 0.39, "unit": "S/m"},
      {"measurement": "viscosity", "setting": "298.15 K, x1 = 0.4011", "result": 810, "unit": "mPa·s"},
      {"measurement": "electrical conductivity", "setting": "298.15 K, x1 = 1", "result": 0.01, "unit": "S/m"},
      {"measurement": "viscosity", "setting": "298.15 K, x1 = 1", "result": 281, "unit": "mPa·s"},
      {"measurement": "electrical conductivity", "setting": "303.15 K, x1 = 0.01", "result": 1.34, "unit": "S/m"},
      {"measurement": "viscosity", "setting": "303.15 K, x1 = 0.01", "result": 0.64, "unit": "mPa·s"},
      {"measurement": "electrical conductivity", "setting": "303.15 K, x1 = 0.02", "result": 2.64, "unit": "S/m"},
      {"measurement": "electrical conductivity", "setting": "303.15 K, x1 = 0.047", "result": 3.32, "unit": "S/m"},
      {"measurement": "viscosity", "setting": "303.15 K, x1 = 0.05", "result": 2.84, "unit": "mPa·s"},
      {"measurement": "electrical conductivity", "setting": "303.15 K, x1 = 0.08", "result": 3.47, "unit": "S/m"},
      {"measurement": "viscosity", "setting": "303.15 K, x1 = 0.3026", "result": 247, "unit": "mPa·s"},
      {"measurement": "electrical conductivity", "setting": "303.15 K, x1 = 1", "result": 0.02, "unit": "S/m"},
      {"measurement": "viscosity", "setting": "303.15 K, x1 = 1", "result": 140, "unit": "mPa·s"},
      {"measurement": "electrical conductivity", "setting": "308.15 K, x1 = 0.047", "result": 3.52, "unit": "S/m"},
      {"measurement": "viscosity", "setting": "308.15 K, x1 = 0.05", "result": 2.71, "unit": "mPa·s"},
      {"measurement": "electrical conductivity", "setting": "308.15 K, x1 = 0.07", "result": 3.74, "unit": "S/m"},
      {"measurement": "electrical conductivity", "setting": "308.15 K, x1 = 0.08", "result": 3.72, "unit": "S/m"},
      {"measurement": "electrical conductivity", "setting": "308.15 K, x1 = 0.1", "result": 3.53, "unit": "S/m"},
      {"measurement": "viscosity", "setting": "308.15 K, x1 = 0.1", "result": 9.2, "unit": "mPa·s"},
      {"measurement": "electrical conductivity", "setting": "308.15 K, x1 = 0.2", "result": 1.98, "unit": "S/m"},
      {"measurement": "viscosity", "setting": "308.15 K, x1 = 0.3026", "result": 202, "unit": "mPa·s"},
      {"measurement": "electrical conductivity", "setting": "308.15 K, x1 = 0.393", "result": 0.6, "unit": "S/m"},
      {"measurement": "viscosity", "setting": "308.15 K, x1 = 0.4011", "result": 550, "unit": "mPa·s"},
      {"measurement": "electrical conductivity", "setting": "313.15 K, x1 = 0.01", "result": 1.47, "unit": "S/m"},
      {"measurement": "viscosity", "setting": "313.15 K, x1 = 0.01", "result": 0.57, "unit": "mPa·s"},
      {"measurement": "electrical conductivity", "setting": "313.15 K, x1 = 0.02", "result": 2.9, "unit": "S/m"},
      {"measurement": "electrical conductivity", "setting": "313.15 K, x1 = 0.047", "result": 3.7, "unit": "S/m"},
      {"measurement": "viscosity", "setting": "313.15 K, x1 = 0.05", "result": 2.49, "unit": "mPa·s"},
      {"measurement": "electrical conductivity", "setting": "313.15 K, x1 = 0.07", "result": 3.96, "unit": "S/m"},
      {"measurement": "electrical conductivity", "setting": "313.15 K, x1 = 0.08", "result": 3.95, "unit": "S/m"},
      {"measurement": "electrical conductivity", "setting": "313.15 K, x1 = 0.2", "result": 2.19, "unit": "S/m"},
      {"measurement": "viscosity", "setting": "313.15 K, x1 = 0.201", "result": 51, "unit": "mPa·s"},
      {"measurement": "viscosity", "setting": "313.15 K, x1 = 0.3026", "result": 163, "unit": "mPa·s"},
      {"measurement": "electrical conductivity", "setting": "313.15 K, x1 = 0.393", "result": 0.73, "unit": "S/m"},
      {"measurement": "electrical conductivity", "setting": "313.15 K, x1 = 1", "result": 0.05, "unit": "S/m"},
      {"measurement": "viscosity", "setting": "313.15 K, x1 = 1", "result": 35.3, "unit": "mPa·s"},
      {"measurement": "electrical conductivity", "setting": "318.15 K, x1 = 0.02", "result": 3.01, "unit": "S/m"},
      {"measurement": "viscosity", "setting": "318.15 K, x1 = 0.05", "result": 2.39, "unit": "mPa·s"},
      {"measurement": "electrical conductivity", "setting": "318.15 K, x1 = 0.07", "result": 4.16, "unit": "S/m"},
      {"measurement": "electrical conductivity", "setting": "318.15 K, x1 = 0.08", "result": 4.17, "unit": "S/m"},
      {"measurement": "electrical conductivity", "setting": "318.15 K, x1 = 0.1", "result": 4.02, "unit": "S/m"},
      {"measurement": "viscosity", "setting": "318.15 K, x1 = 0.1", "result": 7.7, "unit": "mPa·s"},
      {"measurement": "viscosity", "setting": "318.15 K, x1 = 0.201", "result": 45.9, "unit": "mPa·s"},
      {"measurement": "viscosity", "setting": "318.15 K, x1 = 0.3026", "result": 142, "unit": "mPa·s"},
      {"measurement": "electrical conductivity", "setting": "318.15 K, x1 = 0.393", "result": 0.86, "unit": "S/m"},
      {"measurement": "viscosity", "setting": "318.15 K, x1 = 0.4011", "result": 352, "unit": "mPa·s"},
      {"measurement": "electrical conductivity", "setting": "318.15 K, x1 = 1", "result": 0.07, "unit": "S/m"},
      {"measurement": "viscosity", "setting": "318.15 K, x1 = 1", "result": 19.8, "unit": "mPa·s"},
      {"measurement": "electrical conductivity", "setting": "323.15 K, x1 = 0.01", "result": 1.58, "unit": "S/m"},
      {"measurement": "viscosity", "setting": "323.15 K, x1 = 0.01", "result": 0.52, "unit": "mPa·s"},
      {"measurement": "electrical conductivity", "setting": "323.15 K, x1 = 0.02", "result": 3.13, "unit": "S/m"},
      {"measurement": "electrical conductivity", "setting": "323.15 K, x1 = 0.047", "result": 4.03, "unit": "S/m"},
      {"measurement": "viscosity", "setting": "323.15 K, x1 = 0.05", "result": 2.26, "unit": "mPa·s"},
      {"measurement": "electrical conductivity", "setting": "323.15 K, x1 = 0.07", "result": 4.36, "unit": "S/m"},
      {"measurement": "electrical conductivity", "setting": "323.15 K, x1 = 0.1", "result": 4.25, "unit": "S/m"},
      {"measurement": "viscosity", "setting": "323.15 K, x1 = 0.1", "result": 7, "unit": "mPa·s"},
      {"measurement": "viscosity", "setting": "323.15 K, x1 = 0.201", "result": 40.2, "unit": "mPa·s"},
      {"measurement": "electrical conductivity", "setting": "323.15 K, x1 = 0.393", "result": 1, "unit": "S/m"},
      {"measurement": "viscosity", "setting": "323.15 K, x1 = 0.4011", "result": 288, "unit": "mPa·s"},
      {"measurement": "electrical conductivity", "setting": "328.15 K, x1 = 0.01", "result": 1.65, "unit": "S/m"},
      {"measurement": "viscosity", "setting": "328.15 K, x1 = 0.01", "result": 0.48, "unit": "mPa·s"},
      {"measurement": "electrical conductivity", "setting": "328.15 K, x1 = 0.02", "result": 3.25, "unit": "S/m"},
      {"measurement": "electrical conductivity", "setting": "328.15 K, x1 = 0.047", "result": 4.19, "unit": "S/m"},
      {"measurement": "viscosity", "setting": "328.15 K, x1 = 0.05", "result": 2.17, "unit": "mPa·s"},
      {"measurement": "electrical conductivity", "setting": "328.15 K, x1 = 0.08", "result": 4.61, "unit": "S/m"},
      {"measurement": "electrical conductivity", "setting": "328.15 K, x1 = 0.2", "result": 2.8, "unit": "S/m"},
      {"measurement": "viscosity", "setting": "328.15 K, x1 = 0.201", "result": 36.8, "unit": "mPa·s"},
      {"measurement": "viscosity", "setting": "328.15 K, x1 = 0.3026", "result": 105, "unit": "mPa·s"},
      {"measurement": "electrical conductivity", "setting": "328.15 K, x1 = 0.393", "result": 1.16, "unit": "S/m"},
      {"measurement": "electrical conductivity", "setting": "333.15 K, x1 = 0.01", "result": 1.69, "unit": "S/m"},
      {"measurement": "viscosity", "setting": "333.15 K, x1 = 0.01", "result": 0.47, "unit": "mPa·s"},
      {"measurement": "electrical conductivity", "setting": "333.15 K, x1 = 0.02", "result": 3.35, "unit": "S/m"},
      {"measurement": "viscosity", "setting": "333.15 K, x1 = 0.05", "result": 2.01, "unit": "mPa·s"},
      {"measurement": "electrical conductivity", "setting": "333.15 K, x1 = 0.07", "result": 4.79, "unit": "S/m"},
      {"measurement": "electrical conductivity", "setting": "333.15 K, x1 = 0.08", "result": 4.77, "unit": "S/m"},
      {"measurement": "electrical conductivity", "setting": "333.15 K, x1 = 0.1", "result": 4.72, "unit": "S/m"},
      {"measurement": "viscosity", "setting": "333.15 K, x1 = 0.1", "result": 6.1, "unit": "mPa·s"},
      {"measurement": "electrical conductivity", "setting": "333.15 K, x1 = 0.2", "result": 3, "unit": "S/m"},
      {"measurement": "viscosity", "setting": "333.15 K, x1 = 0.3026", "result": 90, "unit": "mPa·s"},
      {"measurement": "electrical conductivity", "setting": "333.15 K, x1 = 0.393", "result": 1.33, "unit": "S/m"},
      {"measurement": "viscosity", "setting": "333.15 K, x1 = 0.4011", "result": 193, "unit": "mPa·s"},
      {"measurement": "electrical conductivity", "setting": "333.15 K, x1 = 1", "result": 0.2, "unit": "S/m"},
      {"measurement": "viscosity", "setting": "333.15 K, x1 = 1", "result": 6.2, "unit": "mPa·s"}
    ]}
  ]
}
